Measurements from US9988397B2, “ERK inhibitors” (Merck Sharp & Dohme Corp., priority 2014, dated 2018).

Biological target: phosphorylated active hERK2 enzyme (Homo sapiens, UniProt P28482)
Assay: Active human ERK2 (hERK2) Activity Assay (IMAP-FP)
Format: biochemical
Conditions: 10 point titration, 3 μM starting concentration, 0.5 nM hERK2, 30 μM ATP, 60 minutes reaction
Procedure: Activated ERK2 activity was determined in an IMAP-FP assay (Molecular Devices). Using this assay format, the potency (IC50) of each compound was determined from a 10 point (1:3 serial dilution, 3 μM starting compound concentration) titration curve using the following outlined procedure. […] Following a 15 minute compound & enzyme incubation, each reaction was initiated by the addition of 10 μL kinase buffer containing 2.45 μM ERK2 IMAP substrate peptides and 75 μM ATP. The final reaction in each well of 25 μL consists of 0.5 nM hERK2, 900 nM unlabeled peptide, 80 nM labeled-peptide, and 30 μM ATP. Phosphorylation reactions were allowed to proceed for 60 minutes and were immediately quenched by the addition of 60 μL IMAP detection beads (1:1000 dilutions) in IMAP binding buffer (Molecular Devices) with 24 mM NaCl. Plates were read on EnVision reader after 60 minutes binding equilibration using Fluorescence Polarization protocol (Perkin Elmer).

phosphorylated active hERK2 enzyme, sequence (P28482 whole entry): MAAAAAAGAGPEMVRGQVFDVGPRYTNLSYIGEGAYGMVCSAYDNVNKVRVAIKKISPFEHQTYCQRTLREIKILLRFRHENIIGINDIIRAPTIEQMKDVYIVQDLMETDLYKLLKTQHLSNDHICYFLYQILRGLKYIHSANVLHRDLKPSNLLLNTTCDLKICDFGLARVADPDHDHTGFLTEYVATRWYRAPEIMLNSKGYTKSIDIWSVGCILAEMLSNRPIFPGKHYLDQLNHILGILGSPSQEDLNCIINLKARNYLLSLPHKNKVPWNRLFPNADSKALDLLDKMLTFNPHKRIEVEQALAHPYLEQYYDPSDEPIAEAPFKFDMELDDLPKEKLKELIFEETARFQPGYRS

| IC50 [nM] | SMILES |
| --- | --- |
| 276 | CN1CCCC(c2ccccc2)NC(=O)Nc2cc3cnn(C)c3c(n2)C1 (centres unmarked) [Example 33, 1,13-Dimethyl-9-phenyl-1,6,9,10,11,12,13,14-octahydro-5,15-(azeno)pyrazolo[3,4-k][1,3,8]triazacyclotetradecin-7(8H)-one] |
| 89.9 | Cn1ncc2cc3nc(c21)Cn1cc(nn1)CC(c1ccccc1)NC(=O)N3 (centres unmarked) [Example 34, 1-methyl-9-phenyl-1,6,9,10-tetrahydro-5,16-(azeno)-14,11-(metheno)pyrazolo[4,3-l][1,2,3,7,9]pentaazacyclopentadecin-7(8H,15H)-one] |
| 69.4 | Cn1ncc2cc3nc(c21)Cn1cc(nn1)C[C@H](c1ccccc1)NC(=O)N3 [Example 35, (9R)-1-Methyl-9-phenyl-1,6,9,10-tetrahydro-5,16-(azeno)-14,11-(metheno)pyrazolo[4,3-l][1,2,3,7,9]pentaazacyclopentadecin-7(8H,15H)-one] |
| 416 | COCCn1ncc2cc3nc(c21)Cn1cc(nn1)CC(c1ccccc1)NC(=O)N3 (centres unmarked) [Example 36, 1-(2-Methoxyethyl)-9-phenyl-1,6,9,10-tetrahydro-5,16-(azeno)-14,11-(metheno)pyrazolo[4,3-l][1,2,3,7,9]pentaazacyclopentadecin-7(8H,15H)-one] |
| 241 | COCCCn1ncc2cc3nc(c21)Cn1cc(nn1)CC(c1ccccc1)NC(=O)N3 (centres unmarked) [Example 37, 1-(3-Methoxypropyl)-9-phenyl-1,6,9,10-tetrahydro-5,16-(azeno)-14,11-(metheno)pyrazolo[4,3-l][1,2,3,7,9]pentaazacyclopentadecin-7(8H,15H)-one] |
| 1950 | Cc1c2nnn1Cc1nc(cc3cnn(C)c13)NC(=O)NC(c1ccccc1)C2 (centres unmarked) [Example 40, 1,18-Dimethyl-9-phenyl-1,6,9,10-tetrahydro-5,16-(azeno)-14,11-(metheno)pyrazolo[4,3-l][1,2,3,7,9]pentaazacyclopentadecin-7(8H,15H)-one] |
| 634 | CCn1ncc2cc3nc(c21)/C=C\COC(C)(C)[C@H](c1ccccc1)NC(=O)N3 [Example 41, (9S,13Z)-1-Ethyl-10,10-dimethyl-9-phenyl-1,6,9,10-tetrahydro-12H-5,15-(azeno)pyrazolo [4,3-i][1,4,6]oxadiazacyclotetradecin-7(8H)-one] |
| 230 | CCn1ncc2cc3nc(c21)/C=C\COC(C)(C)[C@@H](c1ccccc1)NC(=O)N3 [Example 42, (9R,13Z)-1-Ethyl-10,10-dimethyl-9-phenyl-1,6,9,10-tetrahydro-12H-5,15-(azeno)pyrazolo [4,3-i][1,4,6]oxadiazacyclotetradecin-7(8H)-one] |
| 11.2 | CCn1ncc2cc3nc(c21)CC(=O)COC[C@H](c1ccccc1)NC(=O)N3 [Example 43, (9 S)-1-Ethyl-9-phenyl-1,6,9,10-tetrahydro-12H-5,15-(azeno)pyrazolo [4,3-i][1,4,6]oxadiazacyclotetradecine-7,13(8H,14H)-dione] |
| 287 | CCn1ncc2cc3nc(c21)CCCO[C@H]([C@@H](C)O)[C@H](c1ccccc1)NC(=O)N3 [Example 45, (9 S,10 S)-1-Ethyl-10-[(1R)-1-hydroxyethyl]-9-phenyl-1,6,9,10,13,14-hexahydro-12H-5,15-(azeno)pyrazolo[4,3-i][1,4,6]oxadiazacyclotetradecin-7(8H)-one] |
| 48.4 | CCn1ncc2cc3nc(c21)CCCO[C@H]([C@H](C)O)[C@H](c1ccccc1)NC(=O)N3 [Example 46, (9 S,10 S)-1-Ethyl-10-[(1 S)-1-hydroxyethyl]-9-phenyl-1,6,9,10,13,14-hexahydro-12H-5,15-(azeno)pyrazolo[4,3-i][1,4,6]oxadiazacyclotetradecin-7(8H)-one] |
| 687 | CCn1ncc2cc3nc(c21)CCCO[C@@H]([C@@H](C)O)[C@@H](c1ccccc1)NC(=O)N3 [Example 47, (9R,10R)-1-Ethyl-10-[(1R)-1-hydroxyethyl]-9-phenyl-1,6,9,10,13,14-hexahydro-12H-5,15-(azeno)pyrazolo[4,3-i][1,4,6]oxadiazacyclotetradecin-7(8H)-one] |
| 4.11 | CCn1ncc2cc3nc(c21)CCCO[C@@H]([C@H](C)O)[C@@H](c1ccccc1)NC(=O)N3 [Example 48, (9R,10R)-1-Ethyl-10-[(1S)-1-hydroxyethyl]-9-phenyl-1,6,9,10,13,14-hexahydro-12H-5,15-(azeno)pyrazolo[4,3-i][1,4,6]oxadiazacyclotetradecin-7(8H)-one] |
| 3.4 | CCn1ncc2cc3nc(c21)C[C@@H](O)COC[C@H](c1ccc(OC)c(F)c1)NC(=O)N3 [Example 49, (9S,13R)-1-Ethyl-9-(3-fluoro-4-methoxyphenyl)-13-hydroxy-1,6,9,10,13,14-hexahydro-12H-5,15-(azeno)pyrazolo[4,3-i][1,4,6]oxadiazacyclotetradecin-7(8H)-one] |
| 6.28 | CCn1ncc2cc3nc(c21)C[C@H](O)COC[C@H](c1ccc(OC)c(F)c1)NC(=O)N3 [Example 50, (9S,13S)-1-Ethyl-9-(3-fluoro-4-methoxyphenyl)-13-hydroxy-1,6,9,10,13,14-hexahydro-12H-5,15-(azeno)pyrazolo[4,3-i][1,4,6]oxadiazacyclotetradecin-7(8H)-one] |
| 3.91 | CCn1ncc2cc3nc(c21)C[C@@H](O)COC[C@H](c1cccc(F)c1)NC(=O)N3 [Example 51, (9S,13R)-1-Ethyl-9-(3-fluorophenyl)-13-hydroxy-1,6,9,10,13,14-hexahydro-12H-5,15-(azeno)pyrazolo[4,3-i][1,4,6]oxadiazacyclotetradecin-7(8H)-one] |
| 14.5 | CCn1ncc2cc3nc(c21)C[C@H](O)COC[C@H](c1cccc(F)c1)NC(=O)N3 [Example 52, (9S,13S)-1-Ethyl-9-(3-fluorophenyl)-13-hydroxy-1,6,9,10,13,14-hexahydro-12H-5,15-(azeno)pyrazolo[4,3-i][1,4,6]oxadiazacyclotetradecin-7(8H)-one] |
| 3.91 | CCn1ncc2cc3nc(c21)C[C@@H](O)COC[C@H](c1ccc(Cl)c(F)c1)NC(=O)N3 [Example 53, (9S,13R)-1-Ethyl-9-(4-chloro-3-fluorophenyl)-13-hydroxy-1,6,9,10,13,14-hexahydro-12H-5,15-(azeno)pyrazolo[4,3-i][1,4,6]oxadiazacyclotetradecin-7(8H)-one] |
| 5.09 | CCn1ncc2cc3nc(c21)C[C@H](O)COC[C@H](c1ccc(Cl)c(F)c1)NC(=O)N3 [Example 54, (9S,13S)-1-Ethyl-9-(4-chloro-3-fluorophenyl)-13-hydroxy-1,6,9,10,13,14-hexahydro-12H-5,15-(azeno)pyrazolo[4,3-i][1,4,6]oxadiazacyclotetradecin-7(8H)-one] |
| 3.83 | CCn1ncc2cc3nc(c21)C[C@@H](O)COC[C@H](c1cccc(Cl)c1)NC(=O)N3 [Example 55, (9S,13R)-9-(3-chlorophenyl)-1-ethyl-13-hydroxy-1,6,9,10,13,14-hexahydro-12H-5,15-(azeno)pyrazolo[4,3-i][1,4,6]oxadiazacyclotetradecin-7(8H)-one] |
| 0.996 | CCn1ncc2cc3nc(c21)C[C@H](O)COC[C@H](c1cccc(Cl)c1)NC(=O)N3 [Example 56, (9S,13S)-9-(3-chlorophenyl)-1-ethyl-13-hydroxy-1,6,9,10,13,14-hexahydro-12H-5,15-(azeno)pyrazolo[4,3-i][1,4,6]oxadiazacyclotetradecin-7(8H)-one] |
| 5.17 | C=C1COC[C@H](c2ccccc2)NC(=O)Nc2cc3cnn(CC)c3c(n2)C1 [Example 57, (9 S)-1-ethyl-13-methylidene-9-phenyl-1,6,9,10,13,14-hexahydro-12H-5,15-(azeno)pyrazolo[4,3-i][1,4,6]oxadiazacyclotetradecin-7(8H)-one] |
| 5.09 | CCn1ncc2cc3nc(c21)CC(CO)COC[C@H](c1ccccc1)NC(=O)N3 (some centres unmarked) [Example 58, (9 S)-1-ethyl-13-(hydroxymethyl)-9-phenyl-1,6,9,10,13,14-hexahydro-12H-5,15-(azeno)pyrazolo[4,3-i][1,4,6]oxadiazacyclotetradecin-7(8H)-one] |
